Laboratory results: patent US20030057401A1, “Inhibitor compositions” (priority 1999, published 2003)

Test system: sessile SRB colonies
Test: Experiment 4: biocidal efficacy for planktonic and sessile bacteria, studs from Robins device, 3 hr contact
Assay type: cell-based, Sulphate Reducing Bacteria (SRB)
Conditions: if it can penetrate the glycocalyx
Experimental: The purpose of killing planktonic SRB is to prevent the formation of sessile SRB colonies. A series of tests has been conducted in which viable sessile cultures have been treated with a range of biocides. Synthetic Seawater [table] Additional nutrients were added to water to encourage bacteria growth. Experiment 4 is a comparison of biocidal efficacy for planktonic and sessile bacteria. Viable SRB colonies are established on studs in a Robins device. The studs are removed, washed in sterile sea water and treated with solutions containing the test biocide. After exposures of 1, 3, 4, 8 or extended periods, coupons are rinsed, scraped and suspended in fresh synthetic sea water. Serial dilutions and ATP analyses are conducted on the samples to determine bacterial activity.

O=CCCCC=O [glutaraldehyde]
comparative biocidal efficacy on sessile SRB colonies: more effective biocide than quaternary amines
